Assay results as given in US20030118553A1, “Vector constructs for gene-therapy mediated radionuclide therapy of undifferentiated and medullary thyroid carcinomas and non-thyroidal tumours and metastases mediated thereof” (priority 2000, published 2003).
Like-named read-outs stand apart in the source and are kept apart here.

Key:
[1] = test system: tumor cell lines stably transfected with the NIS gene (K1, B-CPAP, 8505-C, SW480, DBTRG); experiment: In vitro radionuclide uptake in tumor cell lines stably transfected with the NIS gene; format: cell-based; details: for radionuclide uptake in control cells: corresponding control cells, not NIS-transfected; for radionuclide uptake in tumor cell lines transfected with NIS: stably transfected K1, B-CPAP, 8505-C, SW480, DBTRG
From the text: FIG. 5A depicts in vitro results of the radionuclide uptake of I-125, Tc-99m-pertechnetate, and At-211 in tumor cell lines stably transfected with the NIS gene as compared to the corresponding control cells: K1 papillary thyroid carcinoma ECACC #92030501, B-CPAP papillary thyroid carcinoma DSMZ #ACC273, 8505-C anaplastic thyroid carcinoma DSMZ #ACC219, SW480 colon carcinoma DSMZ #ACC313, DBTRG glioblastoma DSMZ #ACC359.

[2] = test system: transiently transfected tumor cell lines; experiment: I-125 uptake in transiently NIS-transfected tumor cell lines; format: cell-based; details: also follicular thyroid carcinoma, HepG2, LN-Cap, A498, SK-Mel30, CCF-STTG1, TT
From the text: In FIG. 5B the uptake of I-125 is additionally shown depending on a perchlorate blockage in transiently transfected tumor cell lines. […] The differences in the iodide uptake rates in different cell lines transfected with NIS are caused by the variable transfection efficiency of the distinct cell lines with the method used.

[3] = test system: anaplastic thyroid cells transfected with NIS cDNA; details: NIS-transfected tumor cells implanted into rats; cited from earlier work
[4] = test system: tumor cells of a thyroid carcinoma cell line (K1) transfected with hNIS
Method: After a tumor growth for 3 weeks scintigraphic pictures were taken ventrally by means of scintiscanning (gamma camera ZLC370, Siemens) 3 and 24 h following the injection of 2 MBq I-123, 10 MBq Tc-99m-pertechnetate and 0.4 MBq At-211 (RVL=right-ventral-left).
The cDNAs of the therapeutic genes are amplified from human thyreocyte mRNA after reverse transcription by subsequent PCR with gene-specific primers, and the fragments thus obtained are subcloned in a cloning vector (e.g., pCRblunt, Invitrogen) in E. coli (K12 derivative). For this purpose, overlapping cDNA segments of the single genes are used, the fragments allowing the generation of full-length cDNAs due to their common restriction enzyme cleavage sites. The cDNAs are cloned into a vector for constitutive expression in mammalian cells (e.g., in pCIneo under control of the CMV promoter, Promega). The expression vectors with integrated cDNA (FIG. 7A, example) are used for transient transfection of different tumor cell lines (Fugen6, Roche) and for the generation of stably transfected cell lines by antibiotic selection (e.g., G418 for pCIneo). Radionuclide uptake measurements ([I-125], [At-211], [Tc-99m], [Re-188]) with cell cultures (FIGS. 5 and 6) are performed according to the method of Weiss et al. 1984. To establish an animal model stably transfected tumor cell lines and the corresponding control cells, respectively, are subcutaneously injected into nude NMRI mice (nu/nu). After tumor growth in the course of 3-4 weeks and application of different radionuclides (i. a., [I-123], [At-211], [Tc-99m]) sequential scintiscans are taken with a gamma camera and organ distribution over region of interest (ROI) analyses determined (FIG. 4).

[5] = test system: stably transfected tumor cell lines (K1-NIS, SW480-NIS); experiment: At-211 transport in vitro: Na+ dependency and perchlorate inhibition; format: cell-based
From the text: FIG. 6A depicts the dependency upon Na^+ of the At-211 transport in vitro in stably transfected tumor cell lines (K1-NIS, SW480-NIS), wherein NaCl has been iso-osmotically replaced by choline chloride.

[6] = scintigraphically, K1-NIS tumor, NMRI nude mouse, compared to muscle tissue
[7] = scintiscans 3 and 24 h after injection, K1-wt control tumor not shown

[125IH] [I-125]
radionuclide uptake in control cells [1]: no uptake | radionuclide uptake in tumor cell lines transfected with NIS [1]: highly significant uptake | iodide uptake in transiently transfected tumor cell lines [2]: significant iodide uptake

[131IH] [I-131]
maximum level after [3]: 90 min

[123IH] [I-123]
higher uptake in the NIS tumor as compared to muscle tissue [4, 6]: 60 fold | enrichment of the tracer in the tumor transfected with NIS [4, 7]: significant enrichment

[O]=[99Tc](=[O])(=[O])[O-] [Tc-99m-pertechnetate]
higher uptake in the NIS tumor as compared to muscle tissue [4, 6]: 15 fold | enrichment of the tracer in the tumor transfected with NIS [4, 7]: significant enrichment | radionuclide uptake in control cells [1]: no uptake | radionuclide uptake in tumor cell lines transfected with NIS [1]: highly significant uptake

[O-][Cl+3]([O-])([O-])O [perchlorate]
inhibition of the astate transport ([5]; small perchlorate concentrations): clear inhibition

[At] [At-211]
enrichment of the tracer in the tumor transfected with NIS ([4]; mouse, in vivo): significant enrichment | higher uptake in the NIS tumor as compared to muscle tissue ([4]; mouse, in vivo): 10 fold | radionuclide uptake in control cells [1]: no uptake | radionuclide uptake in tumor cell lines transfected with NIS [1]: highly significant uptake | dependency upon Na+ of the transport ([5]; NaCl iso-osmotically replaced by choline chloride, K1-NIS, SW480-NIS): clear-cut dependency upon Na^+
